Source: US20250197406A1, “INDAZOLES AS HEMATOPOIETIC PROGENITOR KINASE 1 (HPK1) INHIBITORS AND METHODS FOR USING SAME” (1ST Biotherapeutics, Inc., priority 2022, published 2025)

Each compound was assayed against recombinant human HPK1 (Homo sapiens (Human), UniProt Q92918) (assay: HPK1 kinase assay (Promega ADP-Glo kinase assay)). Conditions: In vitro activity against HPK1, 5 ng HPK1, MBP substrate, ATP 25 μM, 30° C. 40 minutes.
recombinant human HPK1, sequence (Q92918 whole entry): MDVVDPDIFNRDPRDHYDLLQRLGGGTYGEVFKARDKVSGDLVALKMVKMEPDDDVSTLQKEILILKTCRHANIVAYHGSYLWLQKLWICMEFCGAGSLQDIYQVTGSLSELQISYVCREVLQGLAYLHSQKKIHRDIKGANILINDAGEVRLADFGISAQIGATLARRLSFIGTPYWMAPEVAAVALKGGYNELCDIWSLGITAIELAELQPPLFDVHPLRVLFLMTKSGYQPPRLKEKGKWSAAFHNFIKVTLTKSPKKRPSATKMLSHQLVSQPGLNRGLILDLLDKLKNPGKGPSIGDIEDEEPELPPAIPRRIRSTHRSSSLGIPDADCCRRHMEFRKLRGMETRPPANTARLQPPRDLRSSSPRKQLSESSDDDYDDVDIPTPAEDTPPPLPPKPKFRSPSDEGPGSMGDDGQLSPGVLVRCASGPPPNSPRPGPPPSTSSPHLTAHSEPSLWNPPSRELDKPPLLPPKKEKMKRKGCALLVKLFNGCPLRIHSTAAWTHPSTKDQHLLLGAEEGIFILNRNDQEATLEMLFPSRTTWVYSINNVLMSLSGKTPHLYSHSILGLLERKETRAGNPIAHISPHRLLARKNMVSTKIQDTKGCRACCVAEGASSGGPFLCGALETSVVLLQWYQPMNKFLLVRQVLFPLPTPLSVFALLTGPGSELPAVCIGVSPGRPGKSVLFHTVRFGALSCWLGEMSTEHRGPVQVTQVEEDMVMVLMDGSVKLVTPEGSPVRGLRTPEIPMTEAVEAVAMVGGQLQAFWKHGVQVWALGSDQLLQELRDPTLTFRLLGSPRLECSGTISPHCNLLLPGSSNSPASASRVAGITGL
Type: biochemical
Description: HPK1 kinase activity was measured by Promega's ADP-Glo™ kinase assay. In this assay, 5 ng of recombinant human HPK1 (signalchem) is incubated with 5 μL of compounds (0.5% DMSO), 5 μL of MBP (0.5 μg/μl) and 5 μL of ATP (25 μM) in buffer (40 mM Tris, 7.5; 20 mM MgCl2; 0.1 mg/ml BSA; 50 μM DTT.). The assay was started by incubating the reaction mixture in a 96-well plate at 30° C. for 40 minutes. After the incubation, 25 μL ADP-Glo reagent was added and the reaction was incubated at room temperature for 40-min to stop the reaction and degrade residual ATP. The ADP product was then converted to ATP by adding 50 μL per well of detection reagent. Luminescence was detected after 30-min room temperature incubation with the Molecular device I3X plate reader. The IC50 values were calculated from a series of percent inhibition values determined at a range of inhibitor concentration using software routines as implemented in the GraphPad Prism 7 software and SigmaPlot13.0.
For `CCN(CC)C(=O)[C@H]1C[C@H]1C(=O)Nc1cn2cc(-c3c(Cl)c(F)c(NC(C)C)c4[nH]ncc34)ncc2n1` [Example 26, (1R,2S)-N1-(6-(5-chloro-6-fluoro-7-(isopropylamino)-1H-indazol-4-yl)imidazo[1,2-a]pyrazin-2-yl)-N2,N2-diethylcyclopropane-1,2-dicarboxamide], the IC50 was < 100 nM. `CN(C)c1c(F)c(C(F)(F)F)c(-c2cn3cc(NC(=O)[C@H]4C[C@H]4F)nc3cn2)c2cn[nH]c12` [Example 27, (1R,2R)-N-(6-(7-(dimethylamino)-6-fluoro-5-(trifluoromethyl)-1H-indazol-4-yl)imidazo[1,2-a]pyrazin-2-yl)-2-fluorocyclopropane-1-carboxamide] was tested, and the IC50 was < 100 nM. For `CC(C)Nc1c(F)c(C(F)F)c(-c2cn3cc(NC(=O)[C@@H]4C[C@@H]4F)nc3cn2)c2cn[nH]c12` [Example 28, (1S,2S)-N-(6-(5-(difluoromethyl)-6-fluoro-7-(isopropylamino)-1H-indazol-4-yl)imidazo[1,2-a]pyrazin-2-yl)-2-fluorocyclopropane-1-carboxamide], the IC50 was < 100 nM. With `CCNC(=O)[C@H]1C[C@H]1C(=O)Nc1cn2cc(-c3c(Cl)c(F)c(NC(C)C)c4[nH]ncc34)ncc2n1` [Example 29, (1R,2S)-N1-(6-(5-chloro-6-fluoro-7-(isopropylamino)-1H-indazol-4-yl)imidazo[1,2-a]pyrazin-2-yl)-N2-ethylcyclopropane-1,2-dicarboxamide] the IC50 was < 100 nM. `CN(C)c1c(F)c(C(F)(F)F)c(-c2cn3cc(NC(=O)[C@@H]4C[C@H]4F)nc3cn2)c2cn[nH]c12` [Example 30, (1S,2R)-N-(6-(7-(dimethylamino)-6-fluoro-5-(trifluoromethyl)-1H-indazol-4-yl)imidazo[1,2-a]pyrazin-2-yl)-2-fluorocyclopropane-1-carboxamide] was tested, and the IC50 was < 100 nM. For `CN(C)c1c(F)c(C(F)(F)F)c(-c2cn3cc(NC(=O)[C@H]4C[C@@H]4F)nc3cn2)c2cn[nH]c12` [Example 31, (1R,2S)-N-(6-(7-(dimethylamino)-6-fluoro-5-(trifluoromethyl)-1H-indazol-4-yl)imidazo[1,2-a]pyrazin-2-yl)-2-fluorocyclopropane-1-carboxamide], the IC50 was < 100 nM. For `COC(=O)[C@H]1C[C@H]1C(=O)Nc1cn2cc(-c3c(Cl)c(F)c(NC(C)C)c4[nH]ncc34)ncc2n1` [Example 32, methyl (1S,2R)-2-((6-(5-chloro-6-fluoro-7-(isopropylamino)-1H-indazol-4-yl)imidazo[1,2-a]pyrazin-2-yl)carbamoyl)cyclopropane-1-carboxylate], the IC50 was < 100 nM. For `Cc1c(F)c(NC(C)C)c2[nH]ncc2c1-c1cn2cc(NC(=O)[C@H]3C[C@H]3F)nc2cn1` [Example 33], the IC50 was < 100 nM. `Cc1c(F)c(NC(C)C)c2[nH]ncc2c1-c1cn2cc(NC(=O)[C@@H]3C[C@H]3F)nc2cn1` [Example 34, (1S,2R)-2-fluoro-N-(6-(6-fluoro-7-(isopropylamino)-5-methyl-1H-indazol-4-yl)imidazo[1,2-a]pyrazin-2-yl)cyclopropane-1-carboxamide] was tested, and the IC50 was < 100 nM. `Cc1c(F)c(NC(C)C)c2[nH]ncc2c1-c1cn2cc(NC(=O)[C@H]3C[C@@H]3F)nc2cn1` [Example 35, (1R,2S)-2-fluoro-N-(6-(6-fluoro-7-(isopropylamino)-5-methyl-1H-indazol-4-yl)imidazo[1,2-a]pyrazin-2-yl)cyclopropane-1-carboxamide] was tested, and the IC50 was < 100 nM. In the case of `O=C(Nc1cn2cc(-c3c(C(F)(F)F)c(F)c(C(O)C4CC4)c4[nH]ncc34)ncc2n1)[C@@H]1C[C@@H]1F` (stereo partly drawn) [Example 36, (1S,2S)-N-(6-(7-(cyclopropyl(hydroxy)methyl)-6-fluoro-5-(trifluoromethyl)-1H-indazol-4-yl)imidazo[1,2-a]pyrazin-2-yl)-2-fluorocyclopropane-1-carboxamide], the IC50 is reported as < 100 nM. For `CC(C)Nc1c(F)c(Cl)c(-c2cn3cc(NC(=O)[C@@H]4C[C@@H]4CCl)nc3cn2)c2cn[nH]c12` [Example 37, (1R,2S)-N-(6-(5-chloro-6-fluoro-7-(isopropylamino)-1H-indazol-4-yl)imidazo[1,2-a]pyrazin-2-yl)-2-(chloromethyl)cyclopropane-1-carboxamide], the IC50 was < 100 nM. For `CC(C)Nc1c(F)c(Cl)c(-c2cn3cc(NC(=O)[C@@H]4C[C@@H]4CO)nc3cn2)c2cn[nH]c12` [Example 38, (IR,2S)-N-(6-(5-chloro-6-fluoro-7-(isopropylamino)-1H-indazol-4-yl)imidazo[1,2-a]pyrazin-2-yl)-2-(hydroxymethyl)cyclopropane-1-carboxamide], the IC50 was < 100 nM. For `CC(C)Nc1c(F)c(Cl)c(-c2cn3cc(NC(=O)[C@@H]4C[C@@H]4C(N)=O)nc3cn2)c2cn[nH]c12` [Example 39, (1R,2S)-N1-(6-(5-chloro-6-fluoro-7-(isopropylamino)-1H-indazol-4-yl)imidazo[1,2-a]pyrazin-2-yl)cyclopropane-1,2-dicarboxamide], the IC50 was < 100 nM. `CC(C)Nc1c(F)c(CO)c(-c2cn3cc(NC(=O)[C@@H]4C[C@@H]4F)nc3cn2)c2cn[nH]c12` [Example 40, (1S,2S)-2-fluoro-N-(6-(6-fluoro-5-(hydroxymethyl)-7-(isopropylamino)-1H-indazol-4-yl)imidazo[1,2-a]pyrazin-2-yl)cyclopropane-1-carboxamide] was tested, and the IC50 was 101 to 500 nM. In the case of `NC(c1c(F)c(C(F)F)c(-c2cn3cc(NC(=O)[C@@H]4C[C@@H]4F)nc3cn2)c2cn[nH]c12)C1CC1` (stereo partly drawn) [Example 41, (1S,2S)-N-(6-(7-(amino(cyclopropyl)methyl)-5-(difluoromethyl)-6-fluoro-1H-indazol-4-yl)imidazo[1,2-a]pyrazin-2-yl)-2-fluorocyclopropane-1-carboxamide], the IC50 is reported as < 100 nM. In the case of `CC(=O)NC(c1c(F)c(C)c(-c2cn3cc(NC(=O)[C@@H]4C[C@@H]4F)nc3cn2)c2cn[nH]c12)C1CC1` (stereo partly drawn) [Example 42, (1S,2S)-N-(6-(7-(acetamido(cyclopropyl)methyl)-6-fluoro-5-methyl-1H-indazol-4-yl)imidazo[1,2-a]pyrazin-2-yl)-2-fluorocyclopropane-1-carboxamide], the IC50 is reported as < 100 nM. `NC(c1c(F)c(C(F)(F)F)c(-c2cn3cc(NC(=O)[C@@H]4C[C@@H]4F)nc3cn2)c2cn[nH]c12)C1CC1` (stereo partly drawn) [Example 44, (1S,2S)-N-(6-(7-(amino(cyclopropyl)methyl)-6-fluoro-5-(trifluoromethyl)-1H-indazol-4-yl)imidazo[1,2-a]pyrazin-2-yl)-2-fluorocyclopropane-1-carboxamide] was tested, and the IC50 was < 100 nM. `CC(N)c1c(F)c(C(F)(F)F)c(-c2cn3cc(NC(=O)[C@@H]4C[C@@H]4F)nc3cn2)c2cn[nH]c12` (stereo partly drawn) [Example 45, (1S,2S)-N-(6-(7-(1-aminoethyl)-6-fluoro-5-(trifluoromethyl)-1H-indazol-4-yl)imidazo[1,2-a]pyrazin-2-yl)-2-fluorocyclopropane-1-carboxamide] was tested, and the IC50 was 501 to 1000 nM. With `CC(C)Nc1c(F)c(Cl)c(-c2cn3cc(NC(=O)C4CC4)nc3cn2)c2cn[nH]c12` [Example 46, N-(6-(5-chloro-6-fluoro-7-(isopropylamino)-1H-indazol-4-yl)imidazo[1,2-a]pyrazin-2-yl)cyclopropanecarboxamide] the IC50 was < 100 nM. In the case of `COC(=O)NC1(C(=O)Nc2cn3cc(-c4c(Cl)c(F)c(NC(C)C)c5[nH]ncc45)ncc3n2)CC1` [Example 47, methyl (1-((6-(5-chloro-6-fluoro-7-(isopropylamino)-1H-indazol-4-yl)imidazo[1,2-a]pyrazin-2-yl)carbamoyl)cyclopropyl)carbamate], the IC50 is reported as 501 to 1000 nM. In the case of `O=C(Nc1cn2cc(-c3c(C(F)F)c(F)c(C(C4CC4)N4C(=O)c5ccccc5C4=O)c4[nH]ncc34)ncc2n1)[C@@H]1C[C@@H]1F` (stereo partly drawn) [Example 48, (1S,2S)-N-(6-(7-(cyclopropyl(1,3-dioxoisoindolin-2-yl)methyl)-5-(difluoromethyl)-6-fluoro-1H-indazol-4-yl)imidazo[1,2-a]pyrazin-2-yl)-2-fluorocyclopropane-1-carboxamide], the IC50 is reported as < 100 nM. For `CC(O)c1c(F)c(C(F)F)c(-c2cn3cc(NC(=O)[C@@H]4C[C@@H]4F)nc3cn2)c2cn[nH]c12` (stereo partly drawn) [Example 49, (1S,2S)-N-(6-(5-(difluoromethyl)-6-fluoro-7-(1-hydroxyethyl)-1H-indazol-4-yl)imidazo[1,2-a]pyrazin-2-yl)-2-fluorocyclopropane-1-carboxamide], the IC50 was < 100 nM. `CC(c1c(F)c(C(F)F)c(-c2cn3cc(NC(=O)[C@@H]4C[C@@H]4F)nc3cn2)c2cn[nH]c12)N1C(=O)c2ccccc2C1=O` (stereo partly drawn) [Example 50, (1S,2S)-N-(6-(5-(difluoromethyl)-7-(1-(1,3-dioxoisoindolin-2-yl)ethyl)-6-fluoro-1H-indazol-4-yl)imidazo[1,2-a]pyrazin-2-yl)-2-fluorocyclopropane-1-carboxamide] was tested, and the IC50 was < 100 nM. For `CC(C)Nc1c(F)c(Cl)c(-c2cn3cc(NC(=O)[C@@H]4C[C@@H]4C#N)nc3cn2)c2cn[nH]c12` [Example 51, (1R,2S)-N-(6-(5-chloro-6-fluoro-7-(isopropylamino)-1H-indazol-4-yl)imidazo[1,2-a]pyrazin-2-yl)-2-cyanocyclopropane-1-carboxamide], the IC50 was < 100 nM. With `CC(=O)NC(C)c1c(F)c(C(F)F)c(-c2cn3cc(NC(=O)[C@@H]4C[C@@H]4F)nc3cn2)c2cn[nH]c12` (stereo partly drawn) [Example 53, (1S,2S)-N-(6-(7-(1-acetamidoethyl)-5-(difluoromethyl)-6-fluoro-1H-indazol-4-yl)imidazo[1,2-a]pyrazin-2-yl)-2-fluorocyclopropane-1-carboxamide] the IC50 was < 100 nM.
